Source: PubChem BioAssay AID1963967 (Molecular Pharmacology Branch, DTP, NCI, 2024)
Values joined by “and” are separate entries in the source; they are usually repeats but may differ in a detail not shown here. Equal values may be shown once.

Tested on: 855422-203-R-J1-PDC spheroids with HUVEC/MSC, viability
Assay: Anticancer human tumor 855422-203-R-J1-PDC patient-derived bladder carcinoma cell line growth inhibition [PI3K]
Conditions: for viability, T/C: stronger effect = lower value
Summary of the method: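 Agents were dosed from a top concentration near clinical Cmax (otherwise 10 microM) in half-log decrements, alone or combined with PI3K inhibitors. The spheroids contain tumor cells plus endothelial (HUVEC) and MSC stroma; viability is measured.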

[1] = curve of first compound, second compound 0.0316 µM
[2] = curve of first compound, second compound 0.1 µM
[3] = curve of first compound, second compound 0.316 µM
[4] = curve of first compound, second compound 1 µM
[5] = curve of first compound, second compound 0.00316 µM
[6] = curve of first compound, second compound 0.01 µM
[7] = second compound 0.00316 µM, first compound 0.0316 µM
[8] = second compound 0.00316 µM, first compound 0.1 µM
[9] = second compound 0.01 µM, first compound 0.0316 µM
[10] = second compound 0.01 µM, first compound 0.1 µM
[11] = second compound 0.0316 µM, first compound 0.0316 µM
[12] = second compound 0.0316 µM, first compound 0.1 µM
[13] = second compound 0.1 µM, first compound 0.0316 µM
[14] = second compound 0.1 µM, first compound 0.1 µM
[15] = second compound 0.316 µM, first compound 0.0316 µM
[16] = second compound 0.316 µM, first compound 0.1 µM
[17] = second compound 1 µM, first compound 0.0316 µM
[18] = second compound 1 µM, first compound 0.1 µM
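Further: agents incubated with spheroids for one week before read-out.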
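Wherever viability, T/C is given: 100% = DMSO vehicle-treated control wells.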

Cn1cnc2c(F)c(Nc3ccc(Br)cc3Cl)c(C(=O)NOCCO)cc21 + Cc1nc(NC(=O)N2CCCC2C(N)=O)sc1-c1ccnc(C(C)(C)C(F)(F)F)c1
IC50 [1]: 2250 nM | IC50 [2]: 2580 nM | IC50 [3]: 1350 nM | IC50 [4]: 111 nM | IC50 (curve of first compound, second compound 3.16 µM): < 9.49 nM | IC50 (curve of first compound, second compound 10 µM): < 9.49 nM | viability, T/C (second compound 0.0316 µM, first compound 0.00949 µM): 94% | viability, T/C (second compound 0.0316 µM, first compound 0.03 µM): 79.5% | viability, T/C (second compound 0.0316 µM, first compound 0.0949 µM): 116% | viability, T/C (second compound 0.0316 µM, first compound 0.3 µM): 90.4% | viability, T/C (second compound 0.0316 µM, first compound 0.949 µM): 82.1% | viability, T/C (second compound 0.0316 µM, first compound 3 µM): 39.2% | viability, T/C (second compound 0.1 µM, first compound 0.00949 µM): 96.6% | viability, T/C (second compound 0.1 µM, first compound 0.03 µM): 92.9% | viability, T/C (second compound 0.1 µM, first compound 0.0949 µM): 89.8% | viability, T/C (second compound 0.1 µM, first compound 0.3 µM): 82.1% | viability, T/C (second compound 0.1 µM, first compound 0.949 µM): 79.4% | viability, T/C (second compound 0.1 µM, first compound 3 µM): 45.1% | viability, T/C (second compound 0.316 µM, first compound 0.00949 µM): 85.9% | viability, T/C (second compound 0.316 µM, first compound 0.03 µM): 78% | viability, T/C (second compound 0.316 µM, first compound 0.0949 µM): 89.9% | viability, T/C (second compound 0.316 µM, first compound 0.3 µM): 75.7% | viability, T/C (second compound 0.316 µM, first compound 0.949 µM): 61.6% | viability, T/C (second compound 0.316 µM, first compound 3 µM): 25% | viability, T/C (second compound 1 µM, first compound 0.00949 µM): 53.1% | viability, T/C (second compound 1 µM, first compound 0.03 µM): 59.4% | viability, T/C (second compound 1 µM, first compound 0.0949 µM): 45.1% | viability, T/C (second compound 1 µM, first compound 0.3 µM): 44.3% | viability, T/C (second compound 1 µM, first compound 0.949 µM): 36.2% | viability, T/C (second compound 1 µM, first compound 3 µM): 10.2% | viability, T/C (second compound 3.16 µM, first compound 0.00949 µM): 33.7% | viability, T/C (second compound 3.16 µM, first compound 0.03 µM): 32.9% | viability, T/C (second compound 3.16 µM, first compound 0.0949 µM): 21.7% | viability, T/C (second compound 3.16 µM, first compound 0.3 µM): 21.2% | viability, T/C (second compound 3.16 µM, first compound 0.949 µM): 16% | viability, T/C (second compound 3.16 µM, first compound 3 µM): 6% | viability, T/C (second compound 10 µM, first compound 0.00949 µM): 22.9% | viability, T/C (second compound 10 µM, first compound 0.03 µM): 11.8% | viability, T/C (second compound 10 µM, first compound 0.0949 µM): 12.7% | viability, T/C (second compound 10 µM, first compound 0.3 µM): 8.91% | viability, T/C (second compound 10 µM, first compound 0.949 µM): 5.5% | viability, T/C (second compound 10 µM, first compound 3 µM): 1.88%

CC(=O)c1c(C)c2cnc(Nc3ccc(N4CCNCC4)cn3)nc2n(C2CCCC2)c1=O + COc1c(OCCCN2CCOCC2)ccc2c3n(c(=NC(=O)c4cnc(N)nc4)nc12)CCN3
IC50 [5]: > 100 nM | IC50 [6]: > 100 nM | IC50 [1]: 18.9 nM | IC50 [2]: < 0.316 nM | IC50 [3]: < 0.316 nM | IC50 [4]: < 0.316 nM | viability, T/C (second compound 0.00316 µM, first compound 0.000316 µM): 91.7% | viability, T/C (second compound 0.00316 µM, first compound 0.001 µM): 101% | viability, T/C (second compound 0.00316 µM, first compound 0.00316 µM): 95.2% | viability, T/C (second compound 0.00316 µM, first compound 0.01 µM): 98.3% | viability, T/C [7]: 90.5% | viability, T/C [8]: 73.5% | viability, T/C (second compound 0.01 µM, first compound 0.000316 µM): 83.1% | viability, T/C (second compound 0.01 µM, first compound 0.001 µM): 88.4% | viability, T/C (second compound 0.01 µM, first compound 0.00316 µM): 88.2% | viability, T/C (second compound 0.01 µM, first compound 0.01 µM): 84.7% | viability, T/C [9]: 86.6% | viability, T/C [10]: 56.5% | viability, T/C (second compound 0.0316 µM, first compound 0.000316 µM): 67.9% | viability, T/C (second compound 0.0316 µM, first compound 0.001 µM): 63.5% | viability, T/C (second compound 0.0316 µM, first compound 0.00316 µM): 58.4% | viability, T/C (second compound 0.0316 µM, first compound 0.01 µM): 55.2% | viability, T/C [11]: 47.6% | viability, T/C [12]: 26.9% | viability, T/C (second compound 0.1 µM, first compound 0.000316 µM): 26.8% | viability, T/C (second compound 0.1 µM, first compound 0.001 µM): 27.5% | viability, T/C (second compound 0.1 µM, first compound 0.00316 µM): 22.6% | viability, T/C (second compound 0.1 µM, first compound 0.01 µM): 25.4% | viability, T/C [13]: 20% | viability, T/C [14]: 12.1% | viability, T/C (second compound 0.316 µM, first compound 0.000316 µM): 10.4% | viability, T/C (second compound 0.316 µM, first compound 0.001 µM): 7.97% | viability, T/C (second compound 0.316 µM, first compound 0.00316 µM): 9.28% | viability, T/C (second compound 0.316 µM, first compound 0.01 µM): 8.98% | viability, T/C [15]: 6.22% | viability, T/C [16]: 5.08% | viability, T/C (second compound 1 µM, first compound 0.000316 µM): 3.62% | viability, T/C (second compound 1 µM, first compound 0.001 µM): 4.81% | viability, T/C (second compound 1 µM, first compound 0.00316 µM): 3.28% | viability, T/C (second compound 1 µM, first compound 0.01 µM): 3.47% | viability, T/C [17]: 4.56% | viability, T/C [18]: 3.64%

CNC(=O)c1ccc(N2C(=S)N(c3ccc(C#N)c(C(F)(F)F)c3)C(=O)C2(C)C)cc1F + COc1c(OCCCN2CCOCC2)ccc2c3n(c(=NC(=O)c4cnc(N)nc4)nc12)CCN3
IC50 [5]: > 10000 nM | IC50 [6]: > 10000 nM | IC50 [1]: > 10000 nM | IC50 [2]: < 31.6 nM | IC50 [3]: < 31.6 nM | IC50 [4]: < 31.6 nM | viability, T/C [7]: 94.3% | viability, T/C [8]: 79.5% | viability, T/C (second compound 0.00316 µM, first compound 0.316 µM): 90.7% | viability, T/C (second compound 0.00316 µM, first compound 1 µM): 83.1% | viability, T/C (second compound 0.00316 µM, first compound 3.16 µM): 71.5% | viability, T/C (second compound 0.00316 µM, first compound 10 µM): 66.5% | viability, T/C [9]: 74% | viability, T/C [10]: 85.1% | viability, T/C (second compound 0.01 µM, first compound 0.316 µM): 74.5% | viability, T/C (second compound 0.01 µM, first compound 1 µM): 76.1% | viability, T/C (second compound 0.01 µM, first compound 3.16 µM): 81.4% | viability, T/C (second compound 0.01 µM, first compound 10 µM): 68.5% | viability, T/C [11]: 63.4% | viability, T/C [12]: 69.3% | viability, T/C (second compound 0.0316 µM, first compound 0.316 µM): 70.8% | viability, T/C (second compound 0.0316 µM, first compound 1 µM): 61.2% | viability, T/C (second compound 0.0316 µM, first compound 3.16 µM): 62.4% | viability, T/C (second compound 0.0316 µM, first compound 10 µM): 58.2% | viability, T/C [13]: 30.2% | viability, T/C [14]: 32.3% | viability, T/C (second compound 0.1 µM, first compound 0.316 µM): 30.2% | viability, T/C (second compound 0.1 µM, first compound 1 µM): 32.9% | viability, T/C (second compound 0.1 µM, first compound 3.16 µM): 34.5% | viability, T/C (second compound 0.1 µM, first compound 10 µM): 29.4% | viability, T/C [15]: 11.5% | viability, T/C [16]: 10.8% | viability, T/C (second compound 0.316 µM, first compound 0.316 µM): 8.16% | viability, T/C (second compound 0.316 µM, first compound 1 µM): 12.7% | viability, T/C (second compound 0.316 µM, first compound 3.16 µM): 9.19% | viability, T/C (second compound 0.316 µM, first compound 10 µM): 10.1% | viability, T/C [17]: 4.1% | viability, T/C [18]: 4.74% | viability, T/C (second compound 1 µM, first compound 0.316 µM): 4.6% | viability, T/C (second compound 1 µM, first compound 1 µM): 4.66% | viability, T/C (second compound 1 µM, first compound 3.16 µM): 5.91% | viability, T/C (second compound 1 µM, first compound 10 µM): 4.28%

Cn1ncnc1[C@H]1c2n[nH]c(=O)c3cc(F)cc(c23)N[C@@H]1c1ccc(F)cc1
viability, T/C (compound 0.000316 µM): 113% [middle of 4 runs] | viability, T/C (compound 0.001 µM): 107% [middle of 4 runs] | viability, T/C (compound 0.00316 µM): 104% (2×) and 108% and 109% | viability, T/C (compound 0.01 µM): 101% [middle of 4 runs] | viability, T/C (compound 0.0316 µM): 110% [middle of 4 runs] | viability, T/C (compound 0.1 µM): 107% and 100% (3×) | IC50 (curve of compound): > 100 nM
